Assay results as given in US7335632B2, “Beta-secretase inhibitors and methods of use thereof” (CoMentis, Inc., priority 2001, dated 2008).
Where two headings read alike, the source gives them in different places.

Legend:
Type in all cases: biochemical
Cathepsin D = Cathepsin D (Homo sapiens, UniProt P07339); test: Inhibition of cathepsin D activity (substrate peptide […], MALDI-TOF); conditions: pH 4.1, 37 degrees C., read-out: Cath D Ki
memapsin 2 = memapsin 2 (Homo sapiens, UniProt P56817); test: Inhibition of memapsin 2 beta-secretase activity toward fluorogenic substrate FS-2; conditions: pH 4, 37° C., 20 minutes pre-incubation, substrate FS-2, tight-binding model; read-out: M2 Ki
Experimental: Potency of compounds were determined by measurement of their inhibition of memapsin 2 activity toward a fluorescent substrate. […] Briefly, assays were performed at pH 4, 37° C., by pre-incubation of memapsin 2 enzyme with compound for 20 minutes. Activity measure was initiated by addition of a fluorogenic substrate FS-2 (Bachem Americas, Torrance, Calif.). Fluorescent signal increase over time was measured as a rate of hydrolysis of the peptide substrate.

memapsin 1 = biological target: T1, memapsin 1 (Homo sapiens, UniProt Q9Y5Z0); test: Inhibition of memapsin 1 beta-secretase activity (substrate peptide […], MALDI-TOF); conditions: pH 4.1, 37 degrees C., substrate NH3-ELDLAVEFWHDR-CO2, MALDI-TOF; read-out: M1 Ki
T1 sequence (Q9Y5Z0 63-518): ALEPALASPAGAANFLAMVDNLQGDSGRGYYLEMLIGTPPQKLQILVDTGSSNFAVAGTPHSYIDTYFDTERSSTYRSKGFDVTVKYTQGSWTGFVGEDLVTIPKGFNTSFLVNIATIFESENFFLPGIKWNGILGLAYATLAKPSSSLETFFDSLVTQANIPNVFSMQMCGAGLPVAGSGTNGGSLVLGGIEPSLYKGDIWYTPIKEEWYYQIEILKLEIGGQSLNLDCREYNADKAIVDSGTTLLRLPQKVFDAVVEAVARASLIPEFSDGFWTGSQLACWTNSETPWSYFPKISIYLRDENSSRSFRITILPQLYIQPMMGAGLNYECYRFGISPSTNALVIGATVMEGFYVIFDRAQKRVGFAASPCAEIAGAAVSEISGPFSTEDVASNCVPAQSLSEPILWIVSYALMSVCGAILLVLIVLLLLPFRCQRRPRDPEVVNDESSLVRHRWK

[1] = substrate NH3-[…]-CO2, MALDI-TOF

Chain of Cathepsin D (P07339 65-412, species assumed): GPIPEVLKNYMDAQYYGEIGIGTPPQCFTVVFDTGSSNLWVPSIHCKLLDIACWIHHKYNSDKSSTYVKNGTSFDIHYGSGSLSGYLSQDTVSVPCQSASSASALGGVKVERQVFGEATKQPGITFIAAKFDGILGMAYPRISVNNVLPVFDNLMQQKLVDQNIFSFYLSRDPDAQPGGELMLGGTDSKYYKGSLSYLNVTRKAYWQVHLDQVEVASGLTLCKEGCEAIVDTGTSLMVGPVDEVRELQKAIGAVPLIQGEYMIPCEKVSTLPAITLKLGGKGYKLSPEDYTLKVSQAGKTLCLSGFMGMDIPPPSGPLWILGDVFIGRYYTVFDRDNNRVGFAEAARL
Chain of memapsin 2 (P56817 46-501): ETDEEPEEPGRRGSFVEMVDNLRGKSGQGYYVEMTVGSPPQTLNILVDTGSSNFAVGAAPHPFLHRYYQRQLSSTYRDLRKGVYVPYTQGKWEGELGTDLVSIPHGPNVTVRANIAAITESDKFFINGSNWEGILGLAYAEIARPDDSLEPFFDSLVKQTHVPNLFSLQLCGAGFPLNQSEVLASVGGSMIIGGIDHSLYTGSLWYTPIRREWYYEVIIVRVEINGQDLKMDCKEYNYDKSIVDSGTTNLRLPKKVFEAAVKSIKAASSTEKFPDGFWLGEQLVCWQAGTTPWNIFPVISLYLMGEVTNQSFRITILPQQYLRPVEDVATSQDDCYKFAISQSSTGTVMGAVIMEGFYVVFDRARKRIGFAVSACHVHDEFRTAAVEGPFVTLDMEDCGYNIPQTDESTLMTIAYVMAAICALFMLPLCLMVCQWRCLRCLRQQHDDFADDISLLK

| Compound | Ki (Cathepsin D; [1]) | Ki (memapsin 2) | Ki (memapsin 1) | Ki (Cathepsin D; substrate NH3-ELDLAVEFWHDR-CO2, MALDI-TOF) |
| --- | --- | --- | --- | --- |
| Cc1csc(COC(=O)N[C@@H](CS(C)(=O)=O)C(=O)N[C@@H](CC(C)C)[C@@H](O)C[C@@H](C)C(=O)NN(C)S(C)(=O)=O)n1 [Structure 63] | > 1000 nM | > 1000 nM | > 1000 nM |  |
| Cc1nc(COC(=O)N[C@@H](CS(C)(=O)=O)C(=O)N[C@H](CC(C)C)[C@@H](O)C[C@@H](C)C(=O)N[C@@H](C(=O)NCC(C)C)C(C)C)no1 [Structure 62] | 100 to 1000 nM | > 1000 nM | > 1000 nM |  |
| Cc1csc(COC(=O)N[C@@H](CS(C)(=O)=O)C(=O)N[C@H](CC(C)C)[C@@H](O)C[C@@H](C)C(=O)NCC2CCC(C(=O)OCc3ccccc3)CC2)n1 (stereo partly drawn) [Structure 82] | < 100 nM | > 1000 nM | > 1000 nM |  |
| Cc1nc(COC(=O)N[C@@H](CS(C)(=O)=O)C(=O)N[C@H](CC(C)C)[C@@H](O)C[C@@H](C)C(=O)N[C@@H](C(=O)OCc2ccccc2)C(C)C)c(C)o1 [Structure 85] | 100 to 1000 nM | 100 to 1000 nM | 100 to 1000 nM |  |
| CSC[C@H](NC(=O)OCc1nc(C)cs1)C(=O)N[C@H](CC(C)C)[C@@H](O)C[C@@H](C)C(=O)NCC1CCC(C(=O)OCc2ccccc2)CC1 (stereo partly drawn) [Structure 76] | < 100 nM | > 1000 nM | > 1000 nM |  |
| CSC[C@H](NC(=O)OCc1csc(C)n1)C(=O)N[C@H](CC(C)C)[C@@H](O)C[C@@H](C)C(=O)N[C@@H](C(=O)NCC(C)C)C(C)C [Structure 21] | < 100 nM | 100 to 1000 nM | 100 to 1000 nM |  |
| Cc1nc(CCC(=O)N[C@@H](CS(C)(=O)=O)C(=O)N[C@H](CC(C)C)[C@@H](O)C[C@@H](C)C(=O)N[C@@H](C(=O)NCC(C)C)C(C)C)c(C)o1 [Structure 44] | 100 to 1000 nM | < 100 nM | < 100 nM |  |
| C=CCSC[C@H](NC(=O)CCn1nc(C)cc1C)C(=O)N[C@@H](CC(C)C)[C@@H](O)C[C@@H](C)C(=O)N[C@H](C(=O)NCC(C)C)C(C)C [Structure 10] | < 100 nM | < 100 nM | < 100 nM |  |
| Cc1nc(COC(=O)N[C@@H](CS(C)(=O)=O)C(=O)N[C@H](CC(C)C)[C@@H](O)C[C@@H](C)C(=O)N[C@@H](C(=O)NCC(C)C)C(C)C)cs1 [Structure 26] |  |  | 100 to 1000 nM |  |
| CSC[C@H](NC(=O)OCc1nc(C)cs1)C(=O)N[C@H](CC(C)C)[C@@H](O)C[C@@H](C)C(=O)N[C@@H](c1ncc[nH]1)C(C)C [Structure 80] | 100 to 1000 nM | > 1000 nM | > 1000 nM |  |
| CSC[C@H](NC(=O)OCc1nc(C)oc1C)C(=O)N[C@H](CC(C)C)[C@@H](O)C[C@@H](C)C(=O)N[C@@H](C(=O)OCc1ccccc1)C(C)C [Structure 84] | 100 to 1000 nM | > 1000 nM | > 1000 nM |  |
| Cc1nc(COC(=O)N[C@@H](CS(C)(=O)=O)C(=O)N[C@H](CC(C)C)[C@@H](O)C[C@@H](C)C(=O)NCC(C)C)c(C)o1 [Structure 42] |  | > 1000 nM | > 1000 nM |  |
| Cc1csc(COC(=O)N[C@@H](CS(C)(=O)=O)C(=O)N[C@H](CC(C)C)[C@@H](O)C[C@@H](C)C(=O)N[C@@H](C(=O)NCc2ccncc2)C(C)C)n1 [Structure 45] | 100 to 1000 nM | 100 to 1000 nM | > 1000 nM |  |
| CSC[C@H](NC(=O)[C@@H](C)Cc1nc(C)cs1)C(=O)N[C@H](CC(C)C)[C@@H](O)C[C@@H](C)C(=O)N[C@@H](C(=O)NCC(C)C)C(C)C [Structure 65] |  | < 100 nM | < 100 nM | < 100 nM |
| Cc1nc(COC(=O)N[C@@H](CS(C)(=O)=O)C(=O)N[C@H](Cc2ccccc2)[C@@H](O)C[C@@H](C)C(=O)N[C@@H](C(=O)NCC(C)C)C(C)C)c(C)o1 [Structure 51] | < 100 nM | < 100 nM | < 100 nM |  |
| CC(C)CNC(=O)[C@H](NC(=O)[C@H](C)C[C@H](O)[C@@H](CC(C)C)NC(=O)[C@H](CS(C)(=O)=O)NC(=O)OCc1ccn(C)n1)C(C)C [Structure 20] | 100 to 1000 nM | 100 to 1000 nM | 100 to 1000 nM |  |
| CSC[C@H](NC(=O)CC(C)n1nc(C)cc1C)C(=O)N[C@@H](CC(C)C)[C@@H](O)C[C@@H](C)C(=O)N[C@H](C(=O)NCC(C)C)C(C)C (stereo partly drawn) [Structure 11] | < 100 nM | > 1000 nM | 100 to 1000 nM |  |
| CSC[C@H](NC(=O)OCc1coc(C)n1)C(=O)N[C@H](CC(C)C)[C@@H](O)C[C@@H](C)C(=O)N[C@@H](C(=O)NCC(C)C)C(C)C [Structure 27] | < 100 nM | 100 to 1000 nM | 100 to 1000 nM |  |

| Compound | Ki (Cathepsin D; [1]) | Ki (memapsin 2) | Ki (memapsin 1) | Ki (Cathepsin D; substrate NH3-ELDLAVEFWHDR-CO2, MALDI-TOF) |
| --- | --- | --- | --- | --- |
| CSC[C@H](NC(=O)[C@@H](C)Cc1nc(C)oc1C)C(=O)N[C@@H](CC(C)C)[C@@H](O)C[C@@H](C)C(=O)N[C@H](C(=O)NCC(C)C)C(C)C [Structure 97] | < 100 nM | < 100 nM | 100 to 1000 nM |  |
| Cc1nc(COC(=O)N[C@@H](CS(C)(=O)=O)C(=O)N[C@H](CC(C)C)[C@@H](O)C[C@@H](C)C(=O)N[C@@H](C(=O)NCC(C)C)C(C)C)co1 [Structure 28] | 100 to 1000 nM | 100 to 1000 nM | 100 to 1000 nM |  |
| CSC[C@H](NC(=O)OCc1nc(C)oc1C)C(=O)N[C@@H](CC(C)C)[C@@H](O)C[C@@H](C)C(=O)N[C@H](C(=O)Nc1nccs1)C(C)C [Structure 96] | < 100 nM | 100 to 1000 nM | 100 to 1000 nM |  |
| CSC[C@H](NC(=O)OCc1nccn1C)C(=O)N[C@@H](CC(C)C)[C@@H](O)C[C@@H](C)C(=O)N[C@@H](C(=O)NCC(C)C)C(C)C [Structure 6] | 100 to 1000 nM | > 1000 nM | < 100 nM |  |
| Cc1csc(COC(=O)N[C@@H](CS(C)(=O)=O)C(=O)N[C@H](CC(C)C)[C@@H](O)C[C@@H](C)C(=O)N[C@@H](C(=O)NCC(C)C)C2CCCCC2)n1 [Structure 33] | > 1000 nM | 100 to 1000 nM | 100 to 1000 nM |  |
| CCc1nc(COC(=O)N[C@@H](CSC)C(=O)N[C@H](CC(C)C)[C@@H](O)C[C@@H](C)C(=O)N[C@@H](C(=O)NCC(C)C)C(C)C)c(C)s1 [Structure 70] | < 100 nM | < 100 nM | < 100 nM |  |
| CCS(=O)(=O)C[C@H](NC(=O)OCc1nc(C)c[s+]1[O-])C(=O)N[C@H](CC(C)C)[C@@H](O)C[C@@H](C)C(=O)N[C@@H](C(=O)NCC(C)C)C(C)C (stereo partly drawn) [Structure 24] | < 100 nM | > 1000 nM | 100 to 1000 nM |  |
| COc1ccc(C[C@H](NC(=O)[C@H](CS(C)(=O)=O)NC(=O)OCc2nc(C)oc2C)[C@@H](O)C[C@@H](C)C(=O)N[C@H](C(=O)NCC(C)C)C(C)C)cc1 [Structure 98] | < 100 nM | > 1000 nM | 100 to 1000 nM |  |
| Cc1csc(COC(=O)N[C@@H](CS(C)(=O)=O)C(=O)N[C@@H](CC(C)C)[C@@H](O)C[C@@H](C)C(=O)N[C@H]2CCNC2=O)n1 [Structure 83] | > 1000 nM | > 1000 nM | > 1000 nM |  |
| Cc1nc(COC(=O)N[C@@H](CS(C)(=O)=O)C(=O)N[C@H](CC(C)C)[C@@H](O)C[C@@H](C)C(=O)N[C@@H](C(=O)NCc2cccnc2)C(C)C)c(C)o1 [Structure 87] | 100 to 1000 nM | < 100 nM | < 100 nM |  |
| CSC[C@H](NC(=O)OCc1nc(C)cs1)C(=O)N[C@H](CC(C)C)[C@@H](O)C[C@@H](C)C(=O)N[C@H](CN(C)C)C(=O)NC(C)C [Structure 81] | > 1000 nM | > 1000 nM | > 1000 nM |  |
| COCSC[C@H](NC(=O)CCn1nc(C)cc1C)C(=O)N[C@H](CC(C)C)[C@@H](O)C[C@@H](C)C(=O)N[C@@H](C(=O)NCC(C)C)C(C)C [Structure 14] | < 100 nM | < 100 nM | < 100 nM |  |
| Cc1nc(COC(=O)N[C@@H](CS(C)(=O)=O)C(=O)N[C@H](CC(C)C)[C@@H](O)C[C@@H](C)C(=O)N[C@@H](C(=O)NCC(C)C)C(C)C)cs1 [Structure 25] | 100 to 1000 nM | 100 to 1000 nM | < 100 nM |  |
| CSC[C@H](NC(=O)OCc1nc(C)cs1)C(=O)N[C@H](Cc1ccccc1)[C@@H](O)C[C@@H](C)C(=O)N[C@@H](C(=O)NCC(C)C)C(C)C [Structure 52] | < 100 nM | < 100 nM | 100 to 1000 nM |  |
| CSC[C@H](NC(=O)CCc1nc(C)oc1C)C(=O)N[C@H](CC(C)C)[C@@H](O)C[C@@H](C)C(=O)N[C@@H](C(=O)NCC(C)C)C(C)C [Structure 41] | < 100 nM | < 100 nM | 100 to 1000 nM |  |
| CC[C@H](C[C@H](O)[C@@H](CC(C)C)NC(=O)[C@H](CSC)NC(=O)OCc1nc(C)oc1C)C(=O)N[C@@H](C(=O)NCC(C)C)C(C)C [Structure 89] | < 100 nM | < 100 nM | 100 to 1000 nM |  |
| CSC[C@H](NC(=O)OCc1noc(C)n1)C(=O)N[C@H](CC(C)C)[C@@H](O)C[C@@H](C)C(=O)N[C@@H](C(=O)NCC(C)C)C(C)C [Structure 61] | < 100 nM | 100 to 1000 nM | > 1000 nM |  |
